Here are results for five compounds from patent US11413278B2, “Compounds and methods for promoting stress resistance” (priority 2015, dated 2022).

“Also recorded” adds a separate entry of the source. Like-named read-outs stand apart in the source and are kept apart here.

One assay concerns the target T1, human PARP1 (Homo sapiens, UniProt P09874).
T1 construct: purchased Trevigen
Description: PARP inhibitor assay (HT Fluorescent Homogeneous PARP Inhibition Assay Kit). The class given is biochemical. Conditions: 10 μM, in vitro. The procedure:
(§1) The assay was performed with the HT Fluorescent Homogeneous PARP Inhibition Assay Kit (Trevigen), following manufacturer's instructions. Briefly, nicotinamide adenine dinucleotide, human PARP1 and activated-DNA solution was added onto a 96-well plate. 54 repurchased small molecules, at 10 μM final concentration, were introduced onto the 96-well assay plate and incubated in a humid chamber at room temperature for 30 min in dark. Cycling mixture, with resazurin and cycling enzyme diaphorase, was then added and incubated further for 1 hr in dark. Reaction was terminated by adding the stopping buffer.
as §1, with “(Trevegen),” for “(Trevigen),”, “stopped” for “terminated”

The test system of assay [1] is WI-38 cells. Nature of the assay: CdCl2 (cadmium) resistance assay. The class given is cell-based, human. Conditions: YES/NO; for Assay 2: Cadmium-resistant: * indicates partial. The procedure: (§2) For many stress conditions tested previously, one significant correlation to longevity is the cellular resistance to H2O2 or CdCl2. Applicants then tested these small molecules, at five different final concentrations (0.25 μM to 20 μM), for cadmium and MMS resistance in WI-38 cells.
(§3) The setups on 384-well plates and incubation times were the same as for H2O2 until the time of incubation with the stressors, which was 12 hours for both cadmium and MMS assays. Applicants tested several conditions, including conditions used to assay fibroblasts from long-lived animals (Salmon et al., 2005). These conditions produced better results with the positive controls (KEAP1 and AKT1 siRNAs) in the MMS assay. Thus, for MMS, the cells were shifted from growth media—OptiMEM+10% FBS, to DMEM (Gibco)+2% BSA (no serum) just before adding small molecules, which occurred 24 hours before MMS addition.
(§4) Isolated small molecules were tested for MMS and cadmium resistance twice in two independent assays. Each small molecule was analyzed at five different concentrations (0.25 μM to 20 μM final concentration), with technical triplicates for each dose. Data were analyzed using a global variance t-test.

Assay [2] has as its system WI-38 cells. Description: MMS resistance assay. The class given is cell-based, human. Conditions: YES/NO; for Assay 3: MMS-resistant: * indicates partial; for Assay 5: Triple resistant: H2O2, cadmium and MMS. The procedure:
as §2, §3, §4

For assay [3], the system named is human dermal fibroblast (HDF) primary cells. Nature of the assay: H2O2-resistance in primary human dermal fibroblasts. Format: cell-based. Particulars: YES/NO.
A further assay has as its system NRF2. Nature of the assay: qPCR analysis of NRF2-regulated genes. Format: cell-based, human. Particulars: Homo sapiens, 24 h, Assay 12(o), at 10 uM, qPCR. The procedure: (§5) For qPCR analysis, WI-38 cells were treated with small molecules (at 10 μM) (biological quadruplicates) for 24 hrs and processed for RNA isolation and reverse transcription (RT) with the Cells-to-Ct Kit (Life Technologies), following manufacturer's instructions. RT products were diluted with H2O and used for qPCR analysis on an ABI 7300 system (Life Technologies) (technical triplicates). Relative expression levels of target genes were normalized to the genes B2M, PPIA and GAPDH. To knock down the expression of FOXO3 or NRF2, WI-38 cells were transfected, using the RNAiMAX reagents (Life Technologies), with siRNA oligos (at 10 nM final concentration, 10 ml culture medium) for FOXO3 (Life Technologies) or NRF2 (Integrated DNA Technologies) on 10-cm petri dishes for 36 hrs, and then detached and aliquoted onto 96-well (for qPCR analysis) or 384-well plates (for H2O2-stress treatment). ˜24 hrs later, small molecules were introduced and incubated with cells for 24 hrs. Cells were then either processed with the Cells-to-Ct Kit to prepare RT products for qPCR analysis or subjected to H2O2 (700 μM) for 3 hrs and assayed for viability. The knockdown efficiency of FOXO3 or NRF2 was checked at 36 hrs post-transfection and at the end as well.
(§6) For qPCR analysis, WI-38 cells were treated with small molecules (at 10 μM) (biological quadruplicate) for 24 hrs and processed for RNA isolation and reverse transcription (RT) with the Cells-to-Ct Kit (Life Technologies), following manufacturer's instructions. RT products were diluted with H2O and used for qPCR analysis on a LightCycler 480 system (Roche) (technical triplicates). Relative expression levels of target genes were normalized to the genes B2M, PPIA and GAPDH. To knock down the expression of FOXO3 or NRF2, WI-38 cells were transfected with siRNA oligos (at 10 nM final concentration) for FOXO3 (Life Technologies) or NRF2 on 10-cm petri dish for 36 hrs, and then detached and aliquoted onto 96-well plates. ˜24 hrs later, small molecules were introduced and incubated with cells for 24 hrs. Cells were then processed with the Cells-to-Ct Kit to prepare RT products for qPCR analysis. The knockdown efficiency of FOXO3 or NRF2 was checked at 36 hrs post-transfection and at the end as well.
NRF2/SKN-1, the oxidative stress and xenobiotic phase 2 detoxification protein, can extend animal lifespan (Sykiotis and Bohmann, 2008; Tullet et al., 2008). Applicants analyzed these small molecules for their ability to increase the expression of NRF2-regulated genes, including HMOX1 (heme oxygenase (decycling) 1; anti-oxidant), NQO1 (NAD(P)H dehydrogenase, quinone 1; phase 2 detoxification enzyme), GCLC (glutamate-cysteine ligase, catalytic) and GSTM1 (glutathionine S transferase) (Hur and Gray, 2011; Suzuki et al., 2013).
A general note: Real-time PCR tracks product formation cycle by cycle.

Another assay deals with C. elegans. Nature of the assay: C. elegans lifespan assays (liquid and plate). Particulars: for ILS at 66 µM: Caenorhabditis elegans. Format: in vivo, Caenorhabditis elegans.
Assay [4] deals with WI-38 cells. Particulars: for Assay 1: H2O2-resistant: YES/NO, if NO, possibly due to repeated freezing/thawing of stocks; for EC50: read-out: Est. ED50, dose response 0.6-20 μM, H2O2-resistance.
In assay [5] the test system is PC12 cells expressing poly(Q)103-Htt-EGFP. Description: Poly(Q) toxicity & viability analysis (cellular model of Huntington's disease). The class given is cell-based, rat. Particulars: 10 uM; YES/NO. The procedure: Viability assays were performed as described before (Aiken et al., 2004). PC12 cells that stably express the inducible poly(Q)103-Htt-EGFP were grown in culture. […] Cell viability was analyzed 48 hrs later by measuring ATP content with CellTiter-Glo.
Toxic protein aggregation is a key feature of many age-related neurodegenerative diseases, including Alzheimer's and Huntington's disease (Caughey and Lansbury, 2003; Ross and Poirier, 2004). A number of animal models (Phillips et al., 2009) and cell models (Schlachetzki et al., 2013) have been established to study these diseases. For this purpose, PC12 rat pheochromocytoma cells display neuronal features and produce neurotransmitters and have been used extensively to study neuronal phenotypes, including synaptic transmission and neurological diseases. […] In this model, induced expression of poly(Q)103-Htt-EGFP could lead to the formation of aggregates and exert substantial toxicity in cells.

In the next assay the test system is FOXO3. Nature of the assay: qPCR analysis of FOXO3-regulated genes. Format: cell-based, human. Particulars: Homo sapiens, 24 h; Assay 10(m); at 10 uM, qPCR; read-out: Induction of FOXO3-regulated genes: TXNIP normalized fold-change. The procedure: as §5, §6
Many perturbations that increase lifespan and stress resistance in animals do so in a FOXO-dependent fashion (Kenyon, 2010c). Humans have several FOXO genes, but FOXO3, which promotes stress resistance in mammalian cell culture (Kops et al., 2002; Nemoto and Finkel, 2002; Tran et al., 2003), is the one that has been linked to exceptional longevity in humans (Anselmi et al., 2009; Flachsbart et al., 2009; Li et al., 2009; Pawlikowska et al., 2009; Soerensen et al., 2010; Willcox et al., 2008). FOXO1, in contrast, appears to be responsible for some symptoms of diabetes in mouse models (Cheng and White, 2011). For this reason, applicants have focused on analyzing potential ability of our small molecules to activate FOXO3. […] Another 4 molecules (Gr-7A, Gr-7C, O12 and O23) could induce robust expression (greater than 1.5-fold) of at least 2 FOXO3 target genes.

[6] abbreviates: Assay 2(z), 1.0 × 10^9 bacteria/ml, wild type + FuDR (2012 July), read-out: Lifespan assay in liquid.
[7] abbreviates: Assay 3(aa), 2.5 × 10^9 bacteria/ml, wild type + FuDR, read-out: Lifespan assay in liquid.
Setting [8] is: Assay 4(ab), 2.0 × 10^10 bacteria/ml, CF512 worms, no FuDR, read-out: Lifespan assay on plates.
Setting [9] is: Assay 5(ac), 1.0 × 10^11 bacteria/ml, CF512 worms, no FuDR, read-out: Lifespan assay on plates.
Setting [10] is: Assay 6(ad), 2.0 × 10^10 bacteria/ml, CF512 worms, no FuDR, read-out: Lifespan assay on plates.
Setting [11] is: Assay 7(ae), 1.0 × 10^11 bacteria/ml, CF512 worms, no FuDR, read-out: Lifespan assay on plates.

T1 sequence (P09874 whole entry): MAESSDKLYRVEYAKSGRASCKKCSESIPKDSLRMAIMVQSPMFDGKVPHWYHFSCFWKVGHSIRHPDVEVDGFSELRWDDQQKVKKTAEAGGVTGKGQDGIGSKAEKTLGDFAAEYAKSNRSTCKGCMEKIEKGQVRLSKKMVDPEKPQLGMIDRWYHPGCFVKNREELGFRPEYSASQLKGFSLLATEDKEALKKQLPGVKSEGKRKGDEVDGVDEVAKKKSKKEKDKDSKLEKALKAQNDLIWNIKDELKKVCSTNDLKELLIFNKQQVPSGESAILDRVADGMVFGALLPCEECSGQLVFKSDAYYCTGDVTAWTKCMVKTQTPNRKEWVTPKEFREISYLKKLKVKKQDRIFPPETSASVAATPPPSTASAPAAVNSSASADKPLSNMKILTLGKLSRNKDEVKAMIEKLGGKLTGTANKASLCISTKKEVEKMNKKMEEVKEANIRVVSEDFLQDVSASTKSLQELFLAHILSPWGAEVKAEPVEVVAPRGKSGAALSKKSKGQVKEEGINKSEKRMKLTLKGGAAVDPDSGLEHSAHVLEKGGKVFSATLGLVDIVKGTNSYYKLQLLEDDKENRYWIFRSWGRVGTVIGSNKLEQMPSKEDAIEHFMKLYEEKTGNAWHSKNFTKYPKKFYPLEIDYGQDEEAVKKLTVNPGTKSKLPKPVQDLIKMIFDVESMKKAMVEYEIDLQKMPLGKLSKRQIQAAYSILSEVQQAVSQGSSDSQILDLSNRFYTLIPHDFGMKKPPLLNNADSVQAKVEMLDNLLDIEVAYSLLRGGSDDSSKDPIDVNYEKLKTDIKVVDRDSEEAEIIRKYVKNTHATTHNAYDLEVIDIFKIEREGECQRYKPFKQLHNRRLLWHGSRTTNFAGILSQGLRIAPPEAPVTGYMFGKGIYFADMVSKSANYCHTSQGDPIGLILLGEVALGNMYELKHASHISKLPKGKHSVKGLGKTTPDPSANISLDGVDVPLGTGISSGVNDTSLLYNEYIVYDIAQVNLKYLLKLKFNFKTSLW

`Cc1sc2nc(SCC(=O)N3CCOCC3)nc(O)c2c1C` [O3]: the “Inhibition of PARP1” value on human PARP1 is given as “inhibitors of PARP1; also recorded: PARP inhibitors”. In the assay with WI-38 cells [1], the “Assay 4: H2O2- & Cd-resistant” value is recorded as “YES”. Besides, the “Assay 2: Cadmium-resistant” value with WI-38 cells [1] was “YES”. Besides, in the assay with WI-38 cells [2], the “Assay 3: MMS-resistant” value is listed as “YES”. Also, the “Assay 5: Triple resistant” value in the assay with WI-38 cells [2] was “YES”. In [3], the “Assay 6: H2O2-resistant, at 10 uM, human dermal fibroblast (HDF) primary cells” value (from here on “Assay 6: H2O2-resistant, at 10 uM”) is on record as “YES”. The fold induction at 10 µM with NRF2 (read-out: Induction of NRF2-regulated genes: NQO1 normalized fold-change) was 1.21. The ILS at 66 µM is 14.1% in the assay on C. elegans (setting [6]); 14.8% in the assay with C. elegans (setting [7]); 15.9% in the assay on C. elegans (setting [8]); 12% with C. elegans (setting [9]); 8.7% with C. elegans (setting [10]); 1.4% in the assay on C. elegans (setting [11]). Also, in the assay on WI-38 cells [4], the “Assay 1: H2O2-resistant” value is recorded as “YES”. Also, in the assay on WI-38 cells [4], the EC50 came to 20 µM.

`CNS(=O)(=O)c1cc(-c2nnc(O)c3ccccc23)ccc1C` [Gr-2A]: the “Inhibition of PARP1” value at human PARP1 is “inhibitors of PARP1; also recorded: PARP inhibitors”. Besides, in the assay with WI-38 cells [1], the “Assay 4: H2O2- & Cd-resistant” value was “YES” and the “Assay 2: Cadmium-resistant” value is “YES”. Besides, in the assay with WI-38 cells [2], the “Assay 3: MMS-resistant” value is on record as “YES” and the “Assay 5: Triple resistant” value was “YES”. Besides, the “Assay 6: H2O2-resistant, at 10 uM” value in assay [3] is “YES”. In addition, the ILS at 66 µM in the assay on C. elegans (setting [6]) came to 22.7%. In the assay with C. elegans (setting [7]), the ILS at 66 µM was 10.8%. Further, in the assay on C. elegans (setting [8]), the ILS at 66 µM was 11.4%. Further, in the assay with WI-38 cells [4], the “Assay 1: H2O2-resistant” value is given as “YES” and the EC50 was 3.05 µM.

For `O=C1NC(=O)c2cccc3cccc1c23` [O7], at human PARP1, the “Inhibition of PARP1” value is listed as “confirmed as PARP inhibitors”. Moreover, the “Assay 4: H2O2- & Cd-resistant” value in the assay with WI-38 cells [1] was “YES”. In the assay on WI-38 cells [1], the “Assay 2: Cadmium-resistant” value is “YES”. Moreover, in the assay on WI-38 cells [2], the “Assay 3: MMS-resistant” value is on record as “YES”. Also, in the assay with WI-38 cells [2], the “Assay 5: Triple resistant” value was “YES”. Also, the “Assay 6: H2O2-resistant, at 10 uM” value in assay [3] is listed as “YES”. In [5], the “Assay 20: Huntington's poly-Q toxicity attenuation” value is listed as “YES”. For the same compound, the ILS at 66 µM with C. elegans (setting [6]) is 19.7%; in the assay with C. elegans (setting [7]), 26%; with C. elegans (setting [8]), 33.7%; in the assay on C. elegans (setting [9]), 10.2%; with C. elegans (setting [10]), 5.8%; with C. elegans (setting [11]), -10.5%. For the same compound, the “Lifespan extension of C. elegans” value in the assay with C. elegans (across independent trials) is 10%-34%. For the same compound, the “Trials with lifespan extension” value with C. elegans (positive of total trials) was 4 of 4. In addition, the “Assay 1: H2O2-resistant” value in the assay with WI-38 cells [4] is listed as “YES”. Further, the EC50 with WI-38 cells [4] was determined as 5.5 µM.

For `CN1CCC=C(Cc2nnc(O)c3ccccc23)C1` [Gr-2D], the “Inhibition of PARP1” value at human PARP1 is recorded as “inhibitors of PARP1”. Further, in the assay with WI-38 cells [4], the EC50 was 3.42 µM.

`Oc1nnc(Cc2ccccc2)c2ccccc12` [Gr-2C]: the “Inhibition of PARP1” value at human PARP1 is listed as “inhibitors of PARP1; also recorded: PARP inhibitors”. Further, the “Assay 4: H2O2- & Cd-resistant” value in the assay with WI-38 cells [1] was “YES”. The “Assay 2: Cadmium-resistant” value in the assay on WI-38 cells [1] is “YES”. In addition, in the assay with WI-38 cells [2], the “Assay 3: MMS-resistant” value is listed as “YES”. Moreover, the “Assay 5: Triple resistant” value in the assay on WI-38 cells [2] is on record as “YES”. The “Assay 6: H2O2-resistant, at 10 uM” value in assay [3] is recorded as “YES”. Besides, the fold induction at 10 µM was 1.2 with FOXO3 and 1.23 in the assay on NRF2 (read-out: Induction of NRF2-regulated genes: HMOX1 normalized fold-change). Also, the ILS at 66 µM in the assay with C. elegans (setting [6]) was 15.3%; in the assay with C. elegans (setting [7]) it was 0.1%; in the assay with C. elegans (setting [8]), 7.6%. Further, the “Assay 1: H2O2-resistant” value with WI-38 cells [4] is listed as “YES”. In the assay on WI-38 cells [4], the EC50 came to 3.12 µM.
